Laboratory results as given in ChEMBL document CHEMBL6078658, “Use of imidazo[1,5-a]quinoline scaffold as the pharmacophore in the design of bivalent ligands of central benzodiazepine receptors” (Bioorg Med Chem, 2025).
pKi: −log10 of the molar value.

Tests used:
[1] = Displacement of [3H]flumazenil from CBR at high affinity site extracted from cerebral cortex of CD-1 albino mouse incubated for 90 mins by liquid scintillation counter analysis; assay type: tissue-based
[2] = Displacement of [3H]flumazenil from CBR at low affinity site extracted from cerebral cortex of CD-1 albino mouse incubated for 90 mins by liquid scintillation counter analysis; assay type: tissue-based
[3] = target: T1, GABA-A receptor; alpha-2/beta-3/gamma-2 (Homo sapiens, UniProt P18507+P28472+P47869); experiment: Displacement of [3H]flumazenil from human recombinant alpha2-beta3-gamma2 GABAA receptors expressed in mouse LTK- cells incubated for 1 hr by liquid scintillation counter analysis; assay type: cell-based
T1 sequence (P18507 whole entry): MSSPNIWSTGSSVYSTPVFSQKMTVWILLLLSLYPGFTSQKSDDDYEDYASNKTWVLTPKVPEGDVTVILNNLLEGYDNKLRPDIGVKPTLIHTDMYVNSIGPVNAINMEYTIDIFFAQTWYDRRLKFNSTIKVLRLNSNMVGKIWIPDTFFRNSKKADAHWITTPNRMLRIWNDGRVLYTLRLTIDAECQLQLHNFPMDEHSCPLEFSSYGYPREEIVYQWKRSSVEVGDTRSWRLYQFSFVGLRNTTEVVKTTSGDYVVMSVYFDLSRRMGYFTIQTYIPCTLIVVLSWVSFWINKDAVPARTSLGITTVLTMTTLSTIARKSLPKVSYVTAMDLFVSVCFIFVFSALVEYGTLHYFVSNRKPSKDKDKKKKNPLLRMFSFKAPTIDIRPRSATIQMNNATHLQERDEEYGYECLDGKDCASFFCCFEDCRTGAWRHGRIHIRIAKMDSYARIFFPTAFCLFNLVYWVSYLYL
T1 sequence (P28472 whole entry): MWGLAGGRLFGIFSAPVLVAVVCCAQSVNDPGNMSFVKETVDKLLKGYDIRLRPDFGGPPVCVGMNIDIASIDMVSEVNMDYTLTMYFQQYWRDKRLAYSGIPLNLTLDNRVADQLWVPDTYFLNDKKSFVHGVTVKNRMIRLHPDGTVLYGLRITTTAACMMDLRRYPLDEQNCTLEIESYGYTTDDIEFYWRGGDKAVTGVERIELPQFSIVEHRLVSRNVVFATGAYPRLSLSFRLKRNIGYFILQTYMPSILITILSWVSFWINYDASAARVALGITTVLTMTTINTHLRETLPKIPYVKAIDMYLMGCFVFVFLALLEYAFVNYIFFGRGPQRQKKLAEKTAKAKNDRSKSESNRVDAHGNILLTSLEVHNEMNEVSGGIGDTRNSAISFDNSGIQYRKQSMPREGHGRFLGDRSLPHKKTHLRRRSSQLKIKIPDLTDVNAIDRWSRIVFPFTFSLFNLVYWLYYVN
T1 sequence (P47869 whole entry): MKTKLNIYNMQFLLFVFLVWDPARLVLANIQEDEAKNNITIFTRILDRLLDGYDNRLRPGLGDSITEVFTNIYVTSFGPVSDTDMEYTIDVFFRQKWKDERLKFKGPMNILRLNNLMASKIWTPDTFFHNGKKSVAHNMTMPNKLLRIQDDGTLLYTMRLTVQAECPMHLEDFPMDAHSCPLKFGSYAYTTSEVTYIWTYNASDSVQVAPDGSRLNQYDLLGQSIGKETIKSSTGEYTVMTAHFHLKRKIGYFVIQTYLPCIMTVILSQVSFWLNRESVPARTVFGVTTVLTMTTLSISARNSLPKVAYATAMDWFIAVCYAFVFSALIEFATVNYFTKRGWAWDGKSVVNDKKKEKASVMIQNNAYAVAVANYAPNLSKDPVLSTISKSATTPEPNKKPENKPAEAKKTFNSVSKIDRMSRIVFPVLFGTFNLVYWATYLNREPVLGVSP

[4] = target: T2, GABA-A receptor; alpha-1/beta-3/gamma-2 (Homo sapiens, UniProt P14867+P18507+P28472); experiment: Displacement of [3H]flumazenil from human recombinant alpha1-beta3-gamma2 GABAA receptors expressed in mouse LTK- cells incubated for 1 hr by liquid scintillation counter analysis; assay type: cell-based
T2 sequence (P14867 whole entry): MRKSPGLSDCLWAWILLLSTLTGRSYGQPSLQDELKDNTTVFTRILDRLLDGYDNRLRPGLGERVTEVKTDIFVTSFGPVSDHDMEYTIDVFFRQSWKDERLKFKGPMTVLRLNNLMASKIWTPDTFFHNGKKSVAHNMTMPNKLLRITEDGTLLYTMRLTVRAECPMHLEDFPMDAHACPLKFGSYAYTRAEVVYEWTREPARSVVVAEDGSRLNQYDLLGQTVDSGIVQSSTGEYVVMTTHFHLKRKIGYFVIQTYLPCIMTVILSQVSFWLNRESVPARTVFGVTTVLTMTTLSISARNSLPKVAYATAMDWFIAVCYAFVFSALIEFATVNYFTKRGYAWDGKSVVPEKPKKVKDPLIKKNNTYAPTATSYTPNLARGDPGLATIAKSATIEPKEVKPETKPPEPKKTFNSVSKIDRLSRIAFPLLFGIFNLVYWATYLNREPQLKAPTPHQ
T2 sequence (P18507 whole entry): T1 sequence (P18507 whole entry)
T2 sequence (P28472 whole entry): T1 sequence (P28472 whole entry)

Mus musculus [5] = experiment: Anticonvulsant activity in PTZ-treated CD-1 mouse assessed as time taken for death latency at 20 mg/kg pretreated for 30 mins followed by PTZ treatment measured for 30 mins post-PTZ dose (reference value: 28.4 +/- 4.8 min); assay type: functional; conditions: 0.5 h
Mus musculus [6] = experiment: Anticonvulsant activity in PTZ-treated CD-1 mouse assessed as time taken for convulsion latency at 20 mg/kg pretreated for 30 mins followed by PTZ treatment measured for 30 mins post-PTZ dose (reference value: 19.3 +/- 4.1 min); assay type: functional; conditions: 0.5 h
Mus musculus [7] = experiment: Anxiolytic activity in CD-1 mouse assessed as time in light at 10 mg/kg treated for 30 mins by light/dark box test (reference value: 112.1 +/- 10.9 sec); assay type: functional; conditions: 0.5 h
Mus musculus [8] = experiment: Myorelaxant effect in CD-1 mouse assessed as time taken for myorelaxation at 20 mg/kg, po measured after 30 mins post-dose by rota rod test (reference value: 1.6 +/- 0.0 min); assay type: functional; conditions: 0.5 h
Mus musculus [9] = experiment: Myorelaxant effect in CD-1 mouse assessed as time taken for myorelaxation at 20 mg/kg, po measured after 45 mins post-dose by rota rod test (reference value: 1.0 +/- 0.2 min); assay type: functional; conditions: 0.75 h
Mus musculus [10] = experiment: Improvement in learning and memory in CD-1 mouse assessed as time taken for retention session at 20 mg/kg, po by passive avoidance test (reference value: 15.6 +/- 3.2 sec); assay type: functional
Mus musculus [11] = experiment: Improvement in learning and memory in CD-1 mouse assessed as time taken for training session at 20 mg/kg, po by passive avoidance test (reference value: 15.6 +/- 3.2 sec); assay type: functional
Mus musculus [12] = experiment: Anxiolytic activity in CD-1 mouse assessed as time in light at 20 mg/kg treated for 30 mins by light/dark box test (reference value: 112.1 +/- 10.9 sec); assay type: functional; conditions: 0.5 h
Mus musculus [13] = experiment: Myorelaxant effect in CD-1 mouse assessed as time taken for myorelaxation at 20 mg/kg, po measured after 60 mins post-dose by rota rod test (reference value: 0.2 +/- 0.3 min); assay type: functional; conditions: 1 h
Mus musculus [14] = experiment: Improvement in learning and memory in CD-1 mouse assessed as difference in time taken for training and retention session at 20 mg/kg, po by passive avoidance test (reference value: 76.8 sec); assay type: functional
Mus musculus [15] = experiment: Myorelaxant effect in CD-1 mouse assessed as time taken for myorelaxation at 20 mg/kg, po measured immediately post-dose by rota rod test (reference value: 5.0 +/- 0.4 min); assay type: functional
Mus musculus [16] = experiment: Myorelaxant effect in CD-1 mouse assessed as time taken for myorelaxation at 20 mg/kg, po measured after 15 mins post-dose by rota rod test (reference value: 3.1 +/- 0.4 min); assay type: functional; conditions: 0.25 h
[17] = Displacement of [3H]flumazenil from CBR extracted from cerebral cortex of CD-1 albino mouse incubated for 90 mins by liquid scintillation counter analysis; assay type: cell membranes, Membranes
Mus musculus [18] = experiment: Improvement in learning and memory in CD-1 mouse assessed as difference in time taken for training and retention session at 1 mg/kg, po by passive avoidance test (reference value: 76.8 sec); assay type: functional
Mus musculus [19] = experiment: Improvement in learning and memory in CD-1 mouse assessed as time taken for training session at 1 mg/kg, po by passive avoidance test (reference value: 15.6 +/- 3.2 sec); assay type: functional
Mus musculus [20] = experiment: Improvement in learning and memory in CD-1 mouse assessed as time taken for retention session at 1 mg/kg, po by passive avoidance test (reference value: 15.6 +/- 3.2 sec); assay type: functional
Mus musculus [21] = experiment: Anxiolytic activity in CD-1 mouse assessed as time in light at 1 mg/kg treated for 30 mins by light/dark box test (reference value: 112.1 +/- 10.9 sec); assay type: functional; conditions: 0.5 h

CCOC(=O)c1ncn2c1c(C)c(C(=O)NCCCCCCCNC(=O)OC(C)(C)C)c1ccccc12
pKi [1]: 7.21 | pKi [2]: 8.19 | pKi [3]: 7.48 | pKi [4]: 7.51

CCOC(=O)c1ncn2c1c(C)c(C(=O)NCCCCCCNC(=O)OC(C)(C)C)c1ccccc12
Time (Mus musculus [5]): 43.3 min | pKi [1]: 7.19 | Time (Mus musculus [6]): 24.2 min | Time (Mus musculus [7]): 109.7 s | Time (Mus musculus [8]): 1.8 min | Time (Mus musculus [9]): 0.8 min | Time (Mus musculus [10]): 95.5 s | Time (Mus musculus [11]): 18.1 s | Time (Mus musculus [12]): 144.7 s | Time (Mus musculus [13]): 0.2 min | pKi [2]: 7.46 | Time (Mus musculus [14]): 77.4 s | pKi [3]: 7.85 | Time (Mus musculus [15]): 5.1 min | pKi [4]: 8.00 | Time (Mus musculus [16]): 3.3 min

CCOC(=O)c1ncn2c1c(C)c(C(=O)NCCCCCCCCNC(=O)c1c(C)c3c(C(=O)OCC)ncn3c3ccccc13)c1ccccc12
Time (Mus musculus [5]): 41.8 min | pKi [1]: 10.30 | Time (Mus musculus [6]): 20.7 min | Time (Mus musculus [7]): 96.7 s | Time (Mus musculus [8]): 1.4 min | Time (Mus musculus [9]): 0.7 min | Time (Mus musculus [10]): 91.8 s | Time (Mus musculus [11]): 14.8 s | Time (Mus musculus [12]): 173.4 s | Time (Mus musculus [13]): 0.2 min | pKi [2]: 7.28 | Time (Mus musculus [14]): 77 s | pKi [3]: 7.25 | Time (Mus musculus [15]): 4.5 min | pKi [4]: 7.19 | Time (Mus musculus [16]): 3 min

CCOC(=O)c1ncn2c1c(C)c(C(=O)NCCCCCCNC(=O)c1c(C)c3c(C(=O)OCC)ncn3c3ccccc13)c1ccccc12
Time (Mus musculus [5]): 40.5 min | pKi [1]: 10.66 | Time (Mus musculus [6]): 22.8 min | Time (Mus musculus [7]): 114.3 s | Time (Mus musculus [8]): 1.9 min | Time (Mus musculus [9]): 0.7 min | Time (Mus musculus [10]): 86.1 s | Time (Mus musculus [11]): 15.3 s | Time (Mus musculus [12]): 166.2 s | Time (Mus musculus [13]): 0.1 min | pKi [2]: 7.22 | Time (Mus musculus [14]): 70.8 s | pKi [3]: 7.35 | Time (Mus musculus [15]): 4.9 min | pKi [4]: 7.13 | Time (Mus musculus [16]): 3.2 min

CCOC(=O)c1ncn2c1c(C)c(C(=O)NCCOCCOCCNC(=O)c1c(C)c3c(C(=O)OCC)ncn3c3ccccc13)c1ccccc12
pKi [17]: 7.74 | pKi [3]: 7.00 | pKi [4]: 6.89

CCOC(=O)c1ncn2c1c(C)c(C(=O)NCCOCCOCCOCCOCCOCCOCCOCCNC(=O)OC(C)(C)C)c1ccccc12
pKi [17]: 9.18 | pKi [3]: 7.20 | pKi [4]: 7.38

CCOC(=O)c1ncn2c1c(C)c(C(=O)NCCCCCCCNC(=O)c1c(C)c3c(C(=O)OCC)ncn3c3ccccc13)c1ccccc12
pKi [1]: 12.00 | pKi [2]: 7.92 | pKi [3]: 7.13 | pKi [4]: 7.13

CCOC(=O)c1ncn2c1c(C)c(C(=O)NCCCCCCCCNC(=O)OC(C)(C)C)c1ccccc12
pKi [1]: 11.30 | pKi [2]: 7.29 | pKi [3]: 7.38 | pKi [4]: 7.41

CCOC(=O)c1ncn2c1c(C)c(C(=O)NCCOCCOCCOCCOCCOCCOCCOCCNC(=O)c1c(C)c3c(C(=O)OCC)ncn3c3ccccc13)c1ccccc12
pKi [17]: 7.39 | pKi [3]: 6.68 | pKi [4]: 6.61

CCOC(=O)c1ncn2c1c(C)c(C(=O)NCCOCCOCCNC(=O)OC(C)(C)C)c1ccccc12
pKi [17]: 7.92 | pKi [3]: 6.40 | pKi [4]: 6.21

CN1C(=O)CN=C(c2ccccc2)c2cc(Cl)ccc21 [DIAZEPAM]
Time (Mus musculus [18]): 43.6 s | Time (Mus musculus [19]): 17.4 s | Time (Mus musculus [20]): 61 s | pKi [2]: 8.46 | Time (Mus musculus [21]): 174.9 s

CCOC(=O)c1ncn2c1CN(C)C(=O)c1cc(F)ccc1-2 [FLUMAZENIL]
pKi [2]: 8.89
